Reference: CN114306288A, “一种卡巴拉汀长效经皮吸收贴剂及其制备方法” (priority 2022, dated 2022)

Assay: In vitro transdermal permeation test (Franz horizontal two-chamber diffusion cell, pig ear skin)
Type: in vitro ADME
Conditions: Examples 33-38, compared with no enhancer; 0.1 g enhancer, 1 mmol rivastigmine salicylate ionic liquid in 2 g adhesive (Example 10); result in words

| Structure (SMILES) | promotion of rivastigmine cumulative permeation amount by transdermal absorption enhancer |
| --- | --- |
| CCCCCCCC/C=C\CCCCCCCC(=O)O [油酸] | 没有显著促进 |
| CC1CCC(C(C)C)C(O)C1 (centres unmarked) [薄荷醇] | 没有显著促进 |
